Experimental data taken from patent US6355799B1, “Substituted benzene compounds, process for their preparation, and herbicidal and defoliant compositions containing them” (ISK Americas Incorporated, priority 1997, dated 2002).

Tests used:
Type in all cases: in vivo
[1] = tested on: field corn (Zea mays L., var. Dekalb 535, CORN); assay: Pre-emerge test, crop safety; details: pre-emerge, 14 days after application, scale 0-100
Summary of the method: (§1)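 Herbicidal damage is scored 0 (none) to 100 (complete plant death) two weeks after a simulated field spray. Rates span 15–1000 g ai/ha, delivered in acetone at 187 l/ha. For post-emergence treatments, plants have 2–3 leaves and the spray carries 0.25% v/v non-ionic surfactant.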

[2] = tested on: upland rice (Oryza sp., var. Tebonnet, RICE); assay: Pre-emerge test, crop safety; details: pre-emerge, 14 days after application, scale 0-100
Summary of the method: as §1

[3] = tested on: sicklepod (Cassia obtusifolia, CASOB); assay: Post-emerge test, greenhouse herbicide activity screening; details: post-emerge, 14 days after application, rating scale 0-100
Summary of the method: (§2)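 Rating: 0–100 visual injury, 14 DAA. Application: acetone, 187 l/ha, 15–1000 g ai/ha, flat-fan track sprayer with nozzle 40–45 cm above soil or canopy. Post-emerge runs used 0.25% v/v surfactant on 2–3 leaf plants.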

[4] = tested on: large crabgrass (Digitaria sanguinalis, DIGSA); assay: as above; details: post-emerge, 14 days after application, rating scale 0-100
Summary of the method: as §2

[5] = tested on: ivyleaf morningglory (Ipomoea hederacea, IPOHE); assay: as above; details: post-emerge, 14 days after application, rating scale 0-100
Summary of the method: as §2

[6] = tested on: barnyardgrass (Echinochloa crus-galli, ECHCG); assay: as above; details: post-emerge, 14 days after application, rating scale 0-100
Summary of the method: as §2

[7] = tested on: johnsongrass (Sorghum halepense, SORHA); assay: as above; details: post-emerge, 14 days after application, rating scale 0-100
Summary of the method: as §2

[8] = tested on: lambsquarters (Chenopodium album, CHEAL); assay: as above; details: post-emerge, 14 days after application, rating scale 0-100
Summary of the method: as §2

[9] = tested on: common ragweed (Ambrosia artemisizfolia L., AMBEL); assay: as above; details: post-emerge, 14 days after application, rating scale 0-100
Summary of the method: as §2

[10] = tested on: redroot pigweed (Amaranthus retroflexus, AMARE); assay: as above; details: post-emerge, 14 days after application, rating scale 0-100
Summary of the method: as §2

[11] = tested on: green foxtail (Setaria viridis, SETVI); assay: as above; details: post-emerge, 14 days after application, rating scale 0-100
Summary of the method: as §2

[12] = tested on: velvetleaf (Abutilon theophrasti, ABUTH); assay: as above; details: post-emerge, 14 days after application, rating scale 0-100
Summary of the method: as §2

[13] = tested on: sicklepod (Cassia obtusifolia, CASOB); assay: Pre-emerge test, greenhouse herbicide activity screening; details: pre-emerge, 14 days after application, scale 0-100
Summary of the method: (§3)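 Applied at 15–1000 g ai/ha from acetone in 187 l/ha spray volume. Post-emergence applications included 0.25% v/v non-ionic surfactant and reached plants sown 8–21 days before. Pre-emergence applications were incorporated by surface watering. Efficacy or crop damage was rated on a 0–100 scale after 14 days.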

[14] = tested on: large crabgrass (Digitaria sanguinalis, DIGSA); assay: as above; details: pre-emerge, 14 days after application, scale 0-100
Summary of the method: as §3

[15] = tested on: ivyleaf morningglory (Ipomoea hederacea, IPOHE); assay: as above; details: pre-emerge, 14 days after application, scale 0-100
Summary of the method: as §3

[16] = tested on: barnyardgrass (Echinochloa crus-galli, ECHCG); assay: as above; details: pre-emerge, 14 days after application, scale 0-100
Summary of the method: as §3

[17] = tested on: johnsongrass (Sorghum halepense, SORHA); assay: as above; details: pre-emerge, 14 days after application, scale 0-100
Summary of the method: as §3

[18] = tested on: lambsquarters (Chenopodium album, CHEAL); assay: as above; details: pre-emerge, 14 days after application, scale 0-100
Summary of the method: as §3

[19] = tested on: green foxtail (Setaria viridis, SETVI); assay: as above; details: pre-emerge, 14 days after application, scale 0-100
Summary of the method: as §3

[20] = tested on: velvetleaf (Abutilon theophrasti, ABUTH); assay: as above; details: pre-emerge, 14 days after application, scale 0-100
Summary of the method: as §3

[21] = tested on: field corn (Zea mays L., var. Dekalb 535, CORN); assay: Post-emerge test, crop safety; details: post-emerge, 14 days after application, rating scale 0-100
Summary of the method: as §3

[22] = tested on: upland rice (Oryza sp., var. Tebonnet, RICE); assay: Post-emerge test, crop safety; details: post-emerge, 14 days after application, rating scale 0-100
Summary of the method: as §3

[23] = tested on: redroot pigweed (Amaranthus retroflexus, AMARE); assay: Pre-emerge test, greenhouse herbicide activity screening; details: pre-emerge, 14 days after application, scale 0-100
Summary of the method: as §2

COc1c(Cl)cc(F)c(-n2c(=O)cc(C(F)(F)F)n(C)c2=O)c1NC(=O)c1ccc2c(Br)cccc2c1 [2-158]
phytotoxicity rating CORN (crop damage) ([1]; 63 g ai/ha): 0 | phytotoxicity rating CORN (crop damage) ([1]; 250 g ai/ha): 0 | phytotoxicity rating RICE (crop damage) ([2]; 63 g ai/ha): 0 | phytotoxicity rating RICE (crop damage) ([2]; 250 g ai/ha): 10 | CASOB phytotoxicity rating ([3]; 63 g ai/ha): 90 | CASOB phytotoxicity rating ([3]; 250 g ai/ha): 100 | DIGSA phytotoxicity rating ([4]; 63 g ai/ha): 0 | DIGSA phytotoxicity rating ([4]; 250 g ai/ha): 30 | IPOHE phytotoxicity rating ([5]; 63 g ai/ha): 20 | IPOHE phytotoxicity rating ([5]; 250 g ai/ha): 80 | ECHCG phytotoxicity rating ([6]; 63 g ai/ha): 0 | ECHCG phytotoxicity rating ([6]; 250 g ai/ha): 50 | SORHA phytotoxicity rating ([7]; 63 g ai/ha): 0 | SORHA phytotoxicity rating ([7]; 250 g ai/ha): 0 | CHEAL phytotoxicity rating ([8]; 63 g ai/ha): 90 | CHEAL phytotoxicity rating ([8]; 250 g ai/ha): 95 | AMBEL phytotoxicity rating ([9]; 63 g ai/ha): 50 | AMBEL phytotoxicity rating ([9]; 250 g ai/ha): 100 | AMARE phytotoxicity rating ([10]; 63 g ai/ha): 100 | AMARE phytotoxicity rating ([10]; 250 g ai/ha): 100 | SETVI phytotoxicity rating ([11]; 63 g ai/ha): 10 | SETVI phytotoxicity rating ([11]; 250 g ai/ha): 70 | ABUTH phytotoxicity rating ([12]; 63 g ai/ha): 95 | ABUTH phytotoxicity rating ([12]; 250 g ai/ha): 100 | phytotoxicity rating CASOB ([13]; 63 g ai/ha): 0 | phytotoxicity rating CASOB ([13]; 250 g ai/ha): 0 | phytotoxicity rating DIGSA ([14]; 63 g ai/ha): 80 | phytotoxicity rating DIGSA ([14]; 250 g ai/ha): 95 | phytotoxicity rating IPOHE ([15]; 63 g ai/ha): 0 | phytotoxicity rating IPOHE ([15]; 250 g ai/ha): 0 | phytotoxicity rating ECHCG ([16]; 63 g ai/ha): 50 | phytotoxicity rating ECHCG ([16]; 250 g ai/ha): 80 | phytotoxicity rating SORHA ([17]; 63 g ai/ha): 0 | phytotoxicity rating SORHA ([17]; 250 g ai/ha): 20 | phytotoxicity rating CHEAL ([18]; 63 g ai/ha): 100 | phytotoxicity rating CHEAL ([18]; 250 g ai/ha): 100 | phytotoxicity rating SETVI ([19]; 63 g ai/ha): 0 | phytotoxicity rating SETVI ([19]; 250 g ai/ha): 95 | phytotoxicity rating ABUTH ([20]; 63 g ai/ha): 80 | phytotoxicity rating ABUTH ([20]; 250 g ai/ha): 95 | CORN phytotoxicity rating (crop damage) ([21]; 63 g ai/ha): 0 | CORN phytotoxicity rating (crop damage) ([21]; 250 g ai/ha): 0 | RICE phytotoxicity rating (crop damage) ([22]; 63 g ai/ha): 20 | RICE phytotoxicity rating (crop damage) ([22]; 250 g ai/ha): 60 | phytotoxicity rating AMARE ([23]; 63 g ai/ha): 100 | phytotoxicity rating AMARE ([23]; 250 g ai/ha): 100

COc1c(Cl)cc(F)c(-n2c(=O)cc(C(F)(F)F)n(C)c2=O)c1NC(=O)c1ccc2cccc(F)c2c1 [2-161]
phytotoxicity rating CORN (crop damage) ([1]; 63 g ai/ha): 0 | phytotoxicity rating CORN (crop damage) ([1]; 250 g ai/ha): 0 | phytotoxicity rating RICE (crop damage) ([2]; 63 g ai/ha): 0 | phytotoxicity rating RICE (crop damage) ([2]; 250 g ai/ha): 40 | CASOB phytotoxicity rating ([3]; 63 g ai/ha): 100 | CASOB phytotoxicity rating ([3]; 250 g ai/ha): 100 | DIGSA phytotoxicity rating ([4]; 63 g ai/ha): 0 | DIGSA phytotoxicity rating ([4]; 250 g ai/ha): 50 | IPOHE phytotoxicity rating ([5]; 63 g ai/ha): 100 | IPOHE phytotoxicity rating ([5]; 250 g ai/ha): 100 | ECHCG phytotoxicity rating ([6]; 63 g ai/ha): 20 | ECHCG phytotoxicity rating ([6]; 250 g ai/ha): 60 | SORHA phytotoxicity rating ([7]; 63 g ai/ha): 0 | SORHA phytotoxicity rating ([7]; 250 g ai/ha): 30 | CHEAL phytotoxicity rating ([8]; 63 g ai/ha): 100 | CHEAL phytotoxicity rating ([8]; 250 g ai/ha): 100 | AMBEL phytotoxicity rating ([9]; 63 g ai/ha): 30 | AMBEL phytotoxicity rating ([9]; 250 g ai/ha): 100 | AMARE phytotoxicity rating ([10]; 63 g ai/ha): 100 | AMARE phytotoxicity rating ([10]; 250 g ai/ha): 100 | SETVI phytotoxicity rating ([11]; 63 g ai/ha): 0 | SETVI phytotoxicity rating ([11]; 250 g ai/ha): 20 | ABUTH phytotoxicity rating ([12]; 63 g ai/ha): 100 | ABUTH phytotoxicity rating ([12]; 250 g ai/ha): 100 | phytotoxicity rating CASOB ([13]; 63 g ai/ha): 0 | phytotoxicity rating CASOB ([13]; 250 g ai/ha): 50 | phytotoxicity rating DIGSA ([14]; 63 g ai/ha): 95 | phytotoxicity rating DIGSA ([14]; 250 g ai/ha): 100 | phytotoxicity rating IPOHE ([15]; 63 g ai/ha): 20 | phytotoxicity rating IPOHE ([15]; 250 g ai/ha): 90 | phytotoxicity rating ECHCG ([16]; 63 g ai/ha): 90 | phytotoxicity rating ECHCG ([16]; 250 g ai/ha): 99 | phytotoxicity rating SORHA ([17]; 63 g ai/ha): 0 | phytotoxicity rating SORHA ([17]; 250 g ai/ha): 30 | phytotoxicity rating CHEAL ([18]; 63 g ai/ha): 100 | phytotoxicity rating CHEAL ([18]; 250 g ai/ha): 100 | phytotoxicity rating SETVI ([19]; 63 g ai/ha): 100 | phytotoxicity rating SETVI ([19]; 250 g ai/ha): 100 | phytotoxicity rating ABUTH ([20]; 63 g ai/ha): 100 | phytotoxicity rating ABUTH ([20]; 250 g ai/ha): 100 | CORN phytotoxicity rating (crop damage) ([21]; 63 g ai/ha): 0 | CORN phytotoxicity rating (crop damage) ([21]; 250 g ai/ha): 20 | RICE phytotoxicity rating (crop damage) ([22]; 63 g ai/ha): 20 | RICE phytotoxicity rating (crop damage) ([22]; 250 g ai/ha): 70 | phytotoxicity rating AMARE ([23]; 63 g ai/ha): 100 | phytotoxicity rating AMARE ([23]; 250 g ai/ha): 100
